Test results as given in patent publication US7470715B2, “Estrogen modulators” (Pfizer Inc., priority 2005, dated 2008).

Tests used:
[1] = biological target: ligand binding domain of the estrogen receptor beta chain (ERβLBD) that contained a point mutation at amino acid residue 418 (pm418) (Homo sapiens, UniProt Q92731); assay: ER agonist cell assay (ERβ), Huh-7 co-transfection, luciferase; type: cell-based; settings: for EC50: Huh-7 cells co-transfected with pG5luc and ERβLBD(pm418), overnight incubation, luciferase; for ERβ % of Max E2 Response: percent of the maximum estradiol fold change, Huh-7, pG5luc and ERβLBD(pm418)
[2] = biological target: T1, ligand binding domain of the estrogen receptor alpha chain (ERαLBD) (Homo sapiens, UniProt P03372); assay: ER agonist cell assay (ERα), Huh-7 co-transfection, luciferase; type: cell-based; settings: for EC50: Huh-7 cells co-transfected with pG5luc and ERαLBD, overnight incubation, luciferase; for ERα % of Max E2 Response: percent of the maximum estradiol fold change, Huh-7, pG5luc and ERαLBD
T1 construct: expressed in transfected cells; host or cells: Huh-7 human hepatoma cells, transient transfection with FuGENE 6
T1 sequence (P03372 311-547 limits assumed): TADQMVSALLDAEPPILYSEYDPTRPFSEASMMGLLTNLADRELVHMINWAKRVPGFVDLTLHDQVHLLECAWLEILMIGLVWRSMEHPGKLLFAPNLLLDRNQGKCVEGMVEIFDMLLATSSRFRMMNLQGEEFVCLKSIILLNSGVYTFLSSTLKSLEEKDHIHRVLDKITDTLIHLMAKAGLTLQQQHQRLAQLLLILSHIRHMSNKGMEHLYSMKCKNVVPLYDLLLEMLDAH

[3] = test system: hairless female SKH, 1-hr mice; assay: Animal model for reversal of wrinkles: skin thickness model, topical dosing, skin thickness and hyaluronic acid; type: in vivo, mouse; settings: 3% topical, QD, three days
Source text: Animal Model for Reversal of Wrinkles
Uzuka et al. describes an increase in mouse back skin water content, hyaluronic acid (HA) content, and hyaluronic acid synthetase activity following topical application or subcutaneous injection of estradiol (Biochimica et Biophysica Acta, 627, 199-206, 1980; Biochimica et Biophysica Acta 673, 387-393, 1981). […] Thus, this model may be used to as a preliminary screen to assess the potential for estrogen modulators to alleviate wrinkles in human skin.
The skin thickness model uses hairless female SKH, 1-hr mice. Mice aged to approximately 11 weeks are introduced into the laboratory environment and acclimated for at least 1 week prior to use in the study may be used. Each group typically consisted of 7 animals that may be run in parallel with vehicle and the positive control estradiol. Based on binding and/or cellular assay data, compounds are chosen for screening in this model. Those compounds include the products of Examples, 2, 9, 15, 46, 47, 48, 51, 52, 61, 135, and 137. Prior to topical application to mouse dorsal skin, a sufficient quantity of each compound is dissolved in a solvent generally consisting of ethanol and propylene glycol (70/30% v/v) (vehicle) to achieve the final concentration specified in Table C below. Animals are dosed topically QD or BID, for three days. Each dose consisted of 100 microliters of vehicle or drug applied uniformly to the entire dorsal surface (˜18 cm^2). All animals are sacrificed approximately 18-24 hours after the final dose. Skin thickness (ST) is measured using a caliper. HA is extracted from the skin and quantitated using commercially-available enzyme-linked immunosorbent assays (ELISAs)(HA).
Data are presented as percent of the estradiol response after subtracting out the ST for vehicle-treated mouse skin. The estradiol response is set to 100% and the vehicle resoibse becines 0%.

Row | SMILES | melting point [°C] | EC50 [1] [µM] | ERβ % of Max E2 Response [1] [%] | EC50 [2] [µM] | ERα % of Max E2 Response [2] [%] | HA (hyaluronic acid), percent of the estradiol response [3] [%] | ST (skin thickness), percent of the estradiol response [3] [%]
1 | CN(C)CC1(c2onc(-c3ccc(O)cc3)c2-c2ccccc2)CC1.Cl | 234 | – | – | – | – | – | –
2 | Cl.Oc1ccc(-c2noc(C3(CN4CCCNCC4)CC3)c2-c2ccccc2)cc1 | 193 to 194 | – | – | – | – | – | –
3 | Cl.Oc1ccc(-c2noc(C3(CNc4ccncc4)CC3)c2-c2ccccc2)cc1 | 316 to 317 | – | – | – | – | – | –
4 | Oc1ccc(-c2noc(C3(C[n+]4ccccc4)CC3)c2-c2ccccc2)cc1.[Cl-] | 244 to 245 | – | – | – | – | – | –
5 | CCOc1ccccc1OCC1(c2onc(-c3ccc(O)cc3)c2-c2ccccc2)CC1 [Example 4, 4-{5-[1-(2-Ethoxy-phenoxymethyl)-cyclopropyl]-4-phenyl-isoxazol-3-yl}-phenol] | 148 to 149 | > 10 | >0.727 | 0.141 | 14.7 | – | –
6 | Oc1ccc(-c2noc(C3(COc4c(F)cccc4OC(F)(F)F)CC3)c2-c2ccccc2)cc1 [Example 5, 4-{5-[1-(2-Fluoro-6-trifluoromethoxy-phenoxymethyl)-cyclopropyl]-4-phenyl-isoxazol-3-yl}-phenol] | 132 to 133 | > 10 | >4.51 | 0.0459 | 19.3 | – | –
7 | CCOc1ncccc1OCC1(c2onc(-c3ccc(O)cc3)c2-c2ccccc2)CC1 [Example 6, 4-{5-[1-(2-Ethoxy-pyridin-3-yloxymethyl)-cyclopropyl]-4-phenyl-isoxazol-3-yl}-phenol] | 190 to 192 | > 10 | >3.19 | 0.237 | 9.48 | – | –

Further lines, with some results ahead:

Row | melting point [°C] | EC50 [1] [µM] | ERβ % of Max E2 Response [1] [%] | EC50 [2] [µM] | ERα % of Max E2 Response [2] [%] | SMILES | HA (hyaluronic acid), percent of the estradiol response [3] [%] | ST (skin thickness), percent of the estradiol response [3] [%]
8 | 126 to 127 | > 10 | >0.571 | 0.0265 | 18.2 | CCC(NCC1(c2onc(-c3ccc(O)cc3)c2-c2ccccc2)CC1)c1ccccc1 (racemic) [Example 25, (±)-4-(4-Phenyl-5-{1-[(1-phenyl-propylamino)-methyl]-cyclopropyl}-isoxazol-3-yl)-phenol] | – | –
9 | 276 to 277 | – | – | – | – | Oc1ccc(-c2noc(C3(CNCC4CCCO4)CC3)c2-c2ccccc2)cc1 (racemic) [Example 30, (±)-4-[4-Phenyl-5-(1-{[(tetrahydro-furan-2-ylmethyl)-amino]-methyl}-cyclopropyl)-isoxazol-3-yl]-phenol] | – | –
10 | 196 to 197 | 0.0467 | 81.2 | 0.0475 | 79.3 | CC(O)C1(c2onc(-c3ccc(O)cc3)c2-c2ccccc2)CC1 (racemic) [Example 45, (±)-4-{5-[1-(1-Hydroxy-ethyl)-cyclopropyl]-4-phenyl-isoxazol-3-yl}-phenol] | – | –
11 | 212 to 214 | – | – | – | – | CC1(c2onc(-c3ccc(O)cc3)c2-c2ccccc2)CC1 [Example 36, 4-[5-(1-methyl-cyclopropyl)-4-phenyl-isoxazol-3-yl]phenol] | – | –
12 | – | 0.117 | 121 | 0.138 | 66 | CC(C)C(=O)OCC1(c2onc(-c3ccc(O)cc3)c2-c2ccccc2)CC1 [Example 52] | 34 | 21
13 | 220 to 221 | – | – | – | – | C[C@H](O)C1(c2onc(-c3ccc(O)cc3)c2-c2ccccc2)CC1 [Example 100, Alt. D, (S)-(+)-4-{5-[1-(1-Hydroxy-ethyl)-cyclopropyl]-4-phenyl-isoxazol-3-yl}-phenol] | – | –
14 | 165 to 166 | – | – | – | – | CC[C@H](O)C1(c2onc(-c3ccc(O)cc3)c2-c2ccccc2)CC1 [Example 100, Alt. F, (S)-(+)-4-{5-[1-(1-hydroxy-propyl)-cyclopropyl]-4-phenyl-isoxazol-3-yl}-phenol] | – | –
15 | 220 to 225 | – | – | – | – | NCC1(c2onc(-c3ccc(O)cc3)c2-c2ccccc2)CC1 [Example 105, 4-{5-[1-(Aminomethyl)cyclopropyl]-4-phenylisoxazol-3-yl}phenol] | – | –
